A short description of data set [1]: Bioavailability (Sr2+ by atomic absorption spectrometry). Conditions: rat, in vivo, po, 50 mg/kg; male wistar rats, 50 mg Sr2+ per kg, gelatin mini capsules; compared with strontium chloride; read-out: Absolute bioavailability. On the procedure: the determination was carried out on groups of 5 male wistar rats
administration is in a dose of 50 mg of Sr^2+ per kg in the form of gelatin mini capsules,
the determination was carried out by atomic absorption spectrometry using flame ionisation for the concentrations higher than 1 μg/ml and furnace ionisation for the concentrations lower than 1 μg/ml

Data set [2] deals with Demi-calvarias of newly born mice. Put plainly: Osseous formation in tissue culture: incorporation of tritiated proline (T/C ratio). It is filed as cell-based. Conditions: 48 h, n = 7. The protocol: (§1) The activity on osseous formation and the anti-resorbing activity of compounds potentially active as medicaments may be detected and measured in vitro in tissue culture.
Demi-calvarias of newly born mice (1-2 days) are cultured on gratings in BGJ medium containing tritiated proline. The explants are cultured for 48 h in the presence of the tested compound at 37° C. and at the end of the culture the bones are washed in trichloroacetic acid containing non-radioactive proline in order to remove the ^3 H-proline which has not been incorporated.
After washing and dissolving in sodium hydroxide solution, the incorporation of the labler in the bone and the amount of total proteins are counted. The effect of the product on the incorporation of proline in the bone in culture is thus evaluated.
Each treated demi-calvaria is compared with the untreated demi-calvaria which serves as control and the T/C ratio is calculated. [formula]
A stimulation of the osseous formation is reflected by a higher incorporation of tritiated proline in the treated demi-calvaria than in the control (T/C>1). An inhibition of the osseous formation is shown by a T/C ratio of <1.
The compounds were tested at concentrations of 10^-4, 10^-6, 10^-8, 10^-10 and 10^-12 M.
6 to 9 experiments were carried out per point.

For data set [3], the system named is forearms of rat foetuses (PTH-stimulated osseous resorption). Put plainly: Osseous resorption in tissue culture: 45Ca salted out from PTH-stimulated foetal forearm bones. It is filed as cell-based, rats. The protocol: as §1
18-day pregnant rats are injected with 150 μcuries of ^45 Ca subcutaneously.
On the 19th day the rats are sacrificed and the foetuses are removed, immersed in a bath of alcohol at 70° are then two baths of PBS and killed by cutting off the head. The two forearms are dissected, the skin, the tendons and the muscles are removed and the cartilaginous extremities are cut off. The forearms are cultured in 24-well culture boxes in the presence of 1.5 ml of MEM for 24 hours for equilibration. At the end of said 24 hours, the medium is replaced by 1.5 ml of BGJB supplemented with 10% of foetal calf serum. The resorption is stimulated in all of the samples by […] of PTH. The bones are cultured for two successive periods of 72 hours each and the culture media are removed to determine the amount of ^45 Ca salted out at the end of each of these two periods. At the end of the second period (7 days after the start of culture), the bones are immersed for 24 hours in 1.5 ml of 10% formic acid and the ^45 Ca salted out from the bones is also determined in a scintillation counter.
The results are expressed for each of the two culture periods by the treated/control ratio calculated in the following way: [formula]
The compounds were tested on this model at concentrations of 5×10^-3 and 5×10^-4 M.

Setting [4] is: PTH alone (reference of the ratio).

Like-named read-outs stand apart in the source and are kept apart here.

One may read the bioavailability as the share of a dose that reaches the circulation, judged against a reference dose that is usually intravenous. For `CCOC(OC(CO)C(=O)O)C(=O)O` (stereo not drawn) [Example 1, Strontium 2-ethoxy-4-hydroxymethyl-3-oxa pentanedioate], the bioavailability in data set [1] was 60.5%. Also, the “Osseous formation, T/C ratio, maximum value” in data set [2] (10^-4 M) is 1.8034; in data set [2] (10^-6 M), 1.4652; in data set [2] (10^-8 M) it was 1.2092; in data set [2] (10^-10 M) it was 1.0974; in data set [2] (10^-12 M), 1.2822. The “Osseous formation, T/C ratio, minimum value” came to 1.2095 in data set [2] (10^-4 M); 0.8433 in data set [2] (10^-6 M); 0.8511 in data set [2] (10^-8 M); 0.8467 in data set [2] (10^-10 M); 0.8988 in data set [2] (10^-12 M). In data set [2] (Mus musculus, 10^-4 M, 37° C., marked **), the activity at 100 µM came to 150%. Also, the activity at 1 µM in data set [2] (Mus musculus, 10^-6 M, 37° C.) worked out at 107%. Further, the activity at 0.01 µM in data set [2] (Mus musculus, 10^-8 M, 37° C.) was found to be 103%. Moreover, the activity at 0.0001 µM in data set [2] (Mus musculus, 10^-10 M, 37° C.) stood at 97.2%. The activity at 1 pM in data set [2] (Mus musculus, 10^-12 M, 37° C.) amounted to 106%. Besides, the “Level of osseous resorption (%), D1-D4” value is 6.4 ± 0.9% in data set [3] (5 10^-3 (M), PTH-stimulated, 9 determinations per point, (c) different from PTH at p < 0.05) and 14.5 ± 4.1% in data set [3] (5 10^-4 (M), PTH-stimulated, 9 determinations per point). The activity at 5000 µM in data set [3] (Rattus norvegicus, 5 10^-3 (M), PTH-stimulated, read-out: Osseous resorption T/C, D1-D4) stood at 45%; in data set [3] (Rattus norvegicus, 5 10^-3 (M), PTH-stimulated, read-out: Osseous resorption T/C, D4-D7), 6%. Also, the activity at 500 µM in data set [3] (Rattus norvegicus, 5 10^-4 (M), PTH-stimulated, read-out: Osseous resorption T/C, D1-D4) worked out at 101%; in data set [3] (Rattus norvegicus, 5 10^-4 (M), PTH-stimulated, read-out: Osseous resorption T/C, D4-D7), 84%. For the same molecule, in data set [3] (Rattus norvegicus, in vitro, PTH-stimulated, read-out: Concentration from which anti-resorbing activity is statistically significant), the minimal effective concentration is 500 µM.

B1: PTH: PTH, used to stimulate the resorption in all of the samples (protein, UniProt P01270 32-115, looked up)
Parathyroid hormone: SVSEIQLMHNLGKHLNSMERVEWLRKKLQDVHNFVALGAPLAPRDAGSQRPRKKEDNVLVESHEKSLGEADKADVNVLTKAKSQ
modifications: Parathyroid hormone
notes: PTH, used to stimulate the resorption in all of the samples
Take B1: in data set [3] (setting [4]), the “Osseous resorption T/C, D1-D4” value is 1.00 and the “Osseous resorption T/C, D4-D7” value is reported as 1.00. The “Level of osseous resorption (%), D1-D4” value in data set [3] (PTH alone, 9 determinations per point, (a) different from control at p < 0.05) is given as 14.3 ± 3.4%. For the same molecule, the “Level of osseous resorption (%), D1-D7” value in data set [3] (PTH alone, 9 determinations per point, (b) different from control at p < 0.0001) is reported as 37.0 ± 7.6%.

(Values after patent publication US5075336A, “Alkaline earth metal salts of oxa polyacid compounds” (Adir et Compagnie, priority 1990, dated 1991).)
